# Target: T1, aldose reductase (Rattus norvegicus, UniProt P07943)
# T1 construct: their crystalline lenses were immediately removed and stored at -80° C; The lenses were homogenized; from tissue; host or cells: crystalline lens of six-week-old male SD rats (30,000 rpm supernatant, dialysed)
# Assay: Test for Examining Aldose Reductase Inhibitory Effect
# Type: biochemical, male SD rats (crystalline lenses)
# Settings: rat lens aldose reductase; DL-glyceraldehyde 10 mM, NADPH 0.15 mM, pH 5.2, 30° C., 5 minutes; least-square regression of log dose-response curve
# Protocol: Six-weeks-old male SD rats were anesthetized with ether and killed. Then their crystalline lenses were immediately removed and stored at -80° C. […] The resulting supernatant was dialyzed overnight against 0.05M sodium chloride solution to obtain an aldose reductase solution. All operations were conducted at 4° C. and the enzyme solution was stored at -80° C.
# More specifically, 0.1 ml of DL-glyceraldehyde (final concentration: 10 mM) was added to 0.9 ml of 100 mM sodium potassium phosphate buffer (pH 5.2) which contained lithium sulfate (final concentration: 400 mM), reduced nicotinamide adenine dinucleotide phosphate (final concentration: 0.15 mM), the enzyme solution, and the compound to be evaluated (final concentration: 10^-6 M, 10^-7 M or 10^-8 M), and then the reaction was conducted at 30° C. for 5 minutes. During the reaction, the change in the absorbance at 340 nm with time was monitored.
# The maximum reducing rate of the absorbance […] during the reaction was determined. By subtracting, from this value, the maximum reducing rate (U0) at 340 nm of the reaction solution before the addition of the substrate (DL-glyceraldehyde), the reaction rate (V=U-U0) was calculated as a true reaction rate in the presence of the compound to be tested.
# The same procedure was repeated except for the absence of the compound to be tested. A true reaction rate (V0) in case the enzyme was not inhibited was calculated (V0 =U'-U0 '). The aldose reductase inhibitory activity of the test compounds was determined according to the following formula:
# Rate of Inhibition (%)=(V0 -V)/V0 ×100
# The concentration of inhibitor giving 50% inhibitation of enyzme activity […] was estimated from the least-square regression line of the log dose-response curve.
row,IC50 [nM],SMILES
1,19,COc1ccc2cc(-c3nnnn3CC(=O)O)ccc2c1 [Example 3 - 3]
2,25,"O=C(O)Cn1nnnc1-c1cccc2ccccc12 [Example 3 - 2, [5-(1-naphthyl)tetrazol-1-yl]acetic acid]"
3,50,O=C(O)Cn1nnnc1-c1ccc2ccccc2c1 [Example 3 - 1]
4,130,"COc1ccc2c(-c3nnnn3CC(=O)O)cccc2c1C(F)(F)F [Example 3 - 4, [5-[1-(6-methoxy-5-trifluoromethyl)naphthyl]tetrazol-1-yl]acetic acid]"

# — US5252592A, “Tetrazoleacetic acid derivatives having aldose reductase inhibitory activity” (Wakamoto Pharmaceutical Co., Ltd., priority 1991, dated 1993)
